Where a name gives a salt, the structure may show the parent alone.
Columns and labels:
Assay type in all cases: physicochemical
[1] = TG/DSC and DSC thermal analysis; settings: listed as Crystalline Form 8 Compound 1 mono(hydrogen sulfate)
Experimental: (§1) In the examples below, to measure TGA/DSC, 2-10 mg of material was added into a pre-tared open aluminum pan and loaded into a TA Instruments Discovery SDT 650 Auto—Simultaneous DSC and held at room temperature. The sample was then heated at a rate of 10° C./min from 30° C. to 400° C. during which time the change in sample weight was recorded along with the heat flow response (DSC). Nitrogen was used as the sample purge gas, at a flow rate of 200 cm^3/min.
(§2) METHOD A: In Example 3, 1-5 mg of material was weighed into an aluminum DSC pan and sealed non-hermetically with a pierced aluminum lid. The sample pan was then loaded into a TA DSC2500 and held at 20° C. Once a stable heat-flow response was obtained, the sample and reference were heated to an upper temperature of 200° C. at a scan rate of 10° C./min and the resulting heat flow response monitored. The sample was held at the upper temperature for 3 minutes, before it was cooled at 10° C./min to 20° C., reheated to the upper temperature at 10° C./min, and then cooled again to 20° C. at the same rate. Nitrogen was used as the purge gas, at a flow rate of 50 cm^3/min.
as §2, with “B:” for “A:”, “Examples 2A, 14, and 17,” for “Example 3,”, “−80° C. and then” for “20° C.,”, “C./min.” for “C./min, and then cooled again to 20° C. at the same rate.”
METHOD C: In Example 5, 1-5 mg of a sample were weighed into an aluminum DSC pan and sealed non-hermetically with an aluminum lid. The sample pan was then loaded into a TA Instruments Discovery DSC 2500 differential scanning calorimeter equipped with a RC90 cooler. The sample and reference were heated to 190° C. at a scan rate of 10° C./min and the resulting heat flow response monitored. The sample was re-cooled to −80° C. and then reheated again to 190° C. all at 10° C./min. Nitrogen was used as the purge gas, at a flow rate of 50 cm^3/min.
as §1, with “2-10” for “In the examples below, to measure TGA/DSC, 2-10”, “Auto-Simultaneous” for “Auto—Simultaneous”
as §2, with “1-5” for “METHOD A: In Example 3, 1-5”, “min,” for “minutes,”

[2] = salt screen, XRPD of damp, dried and 40° C./75% RH stored samples (Salt Preparation Methods 1 and 2); design: key: A: amorphous; Crystalline Form 10 mono(hydrogen sulfate); settings: Sulfuric Acid, 1 equiv.
Experimental: Salt Preparation Method 1: Approximately 25 mg of Compound 1 (free base) was weighed out into 1.5 mL screw-cap vials and a stirrer bar was added. For solid counterions, the appropriate amount of acid (1.0 or 2.0 equiv.) was weighed into separate 1.5 mL screw-cap vials. 100 μL of the appropriate solvent system was added to both the Compound 1 and the solid counterions. Stock solutions of liquid counterions were prepared, such that 100 μL contained 1.0 or 2.0 equiv. of acid. See counterion and solvent lists in Table 60 and Table 61 respectively.
The samples were stirred at 40° C. for 5-10 min and then the acid solutions were added to Compound 1, rinsing out the transfer vial with a further 50 μL of solvent. […] Experiments were temperature cycled between 40° C. and 5° C. (1 h hold; 0.1° C./min ramp/cool) for ca. 24-68 h. Anti-solvent addition (ASA) was carried out to slurries at 5° C. then experiments were heated to 30° C. over 1 h. ASA was carried out at 30° C. or 40° C. where clear solutions or gums were observed.
Temperature cycling was then continued for ca. 16-69 h, followed by further ASA and temperature cycling if required. Material was isolated at 5° C. and analyzed damp by XRPD. All isolated material was dried under vacuum at ca. 40° C. for ca. 17-91 h then re-analyzed by XRPD. The XRPD plate was stored at 40° C./75% RH for 24-48 h and then samples re-analyzed. Solutions were stored uncapped at ambient temperature to evaporate. Any residual solids were analyzed by XRPD.
Salt Preparation Method 2: The general procedure adopted in preparing the potential salts is outlined below. A known mass of Compound 1 (free base) and a known volume of the appropriate solvent system were added to 20 mL scintillation vials. The required mol. equiv. of the appropriate counterions were added to the vials as solutions or slurries in the corresponding solvent system.
The experiments were stirred at 40° C. for ca. 1 h, and then temperature cycled between 40° C. and 5° C. with 0.1° C./min ramp and 1 h hold between each step. Anti-solvent additions and subsequent slurrying at 5° C. were employed in order to facilitate crystallization. […] The damp and dried solids were subsampled and analyzed by XRPD. Where applicable, the dried solids were stored at 40° C./75% RH for 24-48 h in order to improve the crystallinity and/or facilitate solid form conversion to the desired form.

[3] = Dynamic Vapor Sorption (DVS)
Experimental: (§3) METHOD A: In Example 11, approximately 5-15 mg of sample was placed into a mesh vapor sorption balance pan and loaded into either a DVS Intrinsic or DVS Advantage dynamic vapor sorption balance by Surface Measurement Systems. The sample was subjected to a ramping profile from 40-90% relative humidity (RH) at 10% increments, maintaining the sample at each step until a stable weight had been achieved (dm/dt 0.004%, minimum step length 30 minutes, maximum step length 500 minutes) at 25° C. After completion of the sorption cycle, the sample was dried using the same procedure to 0% RH and then a second sorption cycle back to 40% RH was carried out. Two cycles were performed. The weight change during the sorption/desorption cycles were plotted, allowing the hygroscopic nature of the sample to be determined. XRPD analysis was then carried out on the residual solid.
as §3, with “B:” for “A:”, “Examples 2A, 3, 14, and 17,” for “Example 11,”, “10-20” for “5-15”, “determined.” for “determined. XRPD analysis was then carried out on the residual solid.”
as §3, with “Approximately 10-20” for “METHOD A: In Example 11, approximately 5-15”, “RH” for “relative humidity (RH)”, “min,” for “minutes,”, “min)” for “minutes)”, “determined.” for “determined. XRPD analysis was then carried out on the residual solid.”

[4] = Variable Humidity X-Ray Powder Diffraction (VH-XRPD); design: key to VH-XRPD XRPD Results: A = amorphous; 1 = Form 1 Compound 1 hydrogen chloride; PC = poorly crystalline
Experimental: (§4) In the examples below, VH-XRPD analysis was carried out on a Philips X'Pert Pro Multipurpose diffractometer equipped with a humidity chamber. The samples were scanned between 4 and 36° 2θ using Cu K radiation (α1λ=1.54060 Å; α2=1.54443 Å; β=1.39225 Å; α1: α2 ratio=0.5; most, if not all, B radiation is removed from the beam using an X-ray mirror) running in Bragg-Brentano geometry (step size 0.008° 2θ) using 40 kV/40 mA generator settings. Measurements were carried out from 2-90% RH, with a final measurement taken at 40% RH.
as §4, with “VH-XRPD” for “In the examples below, VH-XRPD”, “radiation (α1 λ=1.54060” for “radiation (α1λ=1.54060”, “Å; α1:α2” for “Å; α1: α2”, “all, β” for “all, B”, “from 6-90% relative humidity (RH),” for “from 2-90% RH,”

In the case of `COc1cc(C(=O)O[C@@H]2CCCOc3cc(cc(OC)c3OC)C(=O)NCCCN3CCCN(CC2)CC3)cc(OC)c1OC.O=S(=O)(O)O`, the TGA/DSC mass loss [1] is reported as 7.2% mass loss, the “TGA/DSC thermal event, onset” value ([1]; value before the brackets) is reported as 144 °C and the “TGA/DSC thermal event, peak” value ([1]; value in brackets) is reported as 158 °C.
For `COc1cc(C(=O)O[C@@H]2CCCOc3cc(cc(OC)c3OC)C(=O)NCCCN3CCCN(CC2)CC3)cc(OC)c1OC` [Compound 1 mono(hydrogen sulfate)], the “XRPD Analysis 40° C. 75% RH” value ([2]; Acetonitrile, AS tBME) was “A”, the “XRPD Analysis Damp” value ([2]; Acetonitrile, AS tBME) was “A” and the “XRPD Analysis Dry” value ([2]; Acetonitrile, AS tBME) was “A”. The “XRPD Analysis 40° C. 75% RH” value ([2]; Ethanol, AS Heptane) was “A”, the “XRPD Analysis Damp” value ([2]; Ethanol, AS Heptane) was “A” and the “XRPD Analysis Dry” value ([2]; Ethanol, AS Heptane) was “A”. The “XRPD Analysis 40° C. 75% RH” value ([2]; Ethyl acetate, AS Heptane) was “A”, the “XRPD Analysis Damp” value ([2]; Ethyl acetate, AS Heptane) was “A” and the “XRPD Analysis Dry” value ([2]; Ethyl acetate, AS Heptane) was “A”. The “XRPD Analysis 40° C. 75% RH” value ([2]; IPA:H2O (75:25% v/v), AS tBME) was 10, the “XRPD Analysis Damp” value ([2]; IPA:H2O (75:25% v/v), AS tBME) was “A” and the “XRPD Analysis Dry” value ([2]; IPA:H2O (75:25% v/v), AS tBME) was “A”. For the same compound, the “XRPD Analysis 40° C. 75% RH” value ([2]; MEK, AS Heptane) was 10, the “XRPD Analysis Damp” value ([2]; MEK, AS Heptane) was “A” and the “XRPD Analysis Dry” value ([2]; MEK, AS Heptane) was “A”. For the same compound, the “XRPD Analysis 40° C. 75% RH” value ([2]; THF, AS Heptane) was “A”, the “XRPD Analysis Damp” value ([2]; THF, AS Heptane) was “A” and the “XRPD Analysis Dry” value ([2]; THF, AS Heptane) was “A”.
With `COc1cc(C(=O)O[C@@H]2CCCOc3cc(cc(OC)c3OC)C(=O)NCCCN3CCCN(CC2)CC3)cc(OC)c1OC.Cl.Cl` the hygroscopicity ([3]; 25° C.) was “moderate-high hygroscopicity”, the “hysteresis between the sorption and desorption cycles (DVS)” value ([3]; 25° C. (fumarate: at 20% RH)) was “ca. 1.3%” and the “post-DVS sample (XRPD / appearance)” value ([3]; DVS at 25° C.) was “gum-like material”. The “moisture uptake (DVS)” value ([3]; between 0-80% RH, second sorption cycle, 25° C.) was 18%, the “moisture uptake (DVS)” value ([3]; between 40-80% RH, first sorption cycle, 25° C.) was “ca. 5%” and the “moisture uptake (DVS)” value ([3]; between 80-90% RH, 25° C.) was 9%. For the same compound, the “relative humidity range in which the form is retained (VH-XRPD)” value [4] was 7-80 % RH, the “VH-XRPD XRPD Results” value ([4]; Desorption (1st), 7% RH, hold 60 min) was 1 and the “VH-XRPD XRPD Results” value ([4]; Desorption (1st), 10% RH, hold 60 min) was 1. For the same compound, the “VH-XRPD XRPD Results” value ([4]; Desorption (1st), 20% RH, hold 960 min) was 1, the “VH-XRPD XRPD Results” value ([4]; Desorption (1st), 40% RH, hold 60 min) was 1 and the “VH-XRPD XRPD Results” value ([4]; Desorption (2nd), 40% RH, hold 60 min) was 1. The “VH-XRPD XRPD Results” value ([4]; Desorption (2nd), 60% RH, hold 60 min) was 1, the “VH-XRPD XRPD Results” value ([4]; Sorption, 10% RH, hold 60 min) was 1 and the “VH-XRPD XRPD Results” value ([4]; Sorption, 20% RH, hold 60 min) was 1. For the same compound, the “VH-XRPD XRPD Results” value ([4]; Sorption, 40% RH, hold 60 min) was 1, the “VH-XRPD XRPD Results” value ([4]; Sorption, 60% RH, hold 60 min) was 1 and the “VH-XRPD XRPD Results” value ([4]; Sorption, 70% RH, hold 60 min) was 1. For the same compound, the “VH-XRPD XRPD Results” value ([4]; Sorption, 80% RH, hold 60 min) was 1.
